Experimental data as given in PubChem BioAssay (NCI).
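Dose response: 5 concentrations. Exposure: 48 h. Format: 96-well plates. Endpoint: linear interpolation; highest concentration if not reached. GI50 is the concentration that inhibits growth by half. TGI is the concentration that stops growth completely.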

Columns and labels:
Test in all cases: DTP human tumour cell line panel, 48 h
[1] = test system: HOP-62 NSCLC
[2] = test system: SF-295 CNS
[3] = test system: MALME-3M melanoma
[4] = test system: MOLT-4 leukemia
[5] = test system: HS 578T breast
[6] = test system: K-562 leukemia
[7] = test system: UO-31 renal
[8] = test system: T-47D breast
[9] = test system: 786-0 renal
[10] = test system: SW-620 colon
[11] = test system: RXF 393 renal
[12] = test system: HOP-92 NSCLC
[13] = test system: SK-OV-3 ovarian
[14] = test system: CCRF-CEM leukemia
[15] = test system: UACC-62 melanoma
[16] = test system: MCF7 breast
[17] = test system: SK-MEL-28 melanoma
[18] = test system: RPMI-8226 leukemia
[19] = test system: CAKI-1 renal
[20] = test system: SNB-19 CNS
[21] = test system: PC-3 prostate
[22] = test system: UACC-257 melanoma
[23] = test system: SF-268 CNS
[24] = test system: SF-539 CNS
[25] = test system: NCI/ADR-RES ovarian
[26] = test system: ACHN renal
[27] = test system: KM12 colon
[28] = test system: M14 melanoma
[29] = test system: DU-145 prostate
[30] = test system: OVCAR-8 ovarian
[31] = test system: HL-60(TB) leukemia
[32] = test system: OVCAR-3 ovarian
[33] = test system: COLO 205 colon
[34] = test system: MDA-MB-435
[35] = test system: EKVX NSCLC
[36] = test system: TK-10 renal
[37] = test system: HCT-116 colon
[38] = test system: OVCAR-5 ovarian
[39] = test system: U251 CNS
[40] = test system: SK-MEL-5 melanoma
[41] = test system: BT-549 breast
[42] = test system: OVCAR-4 ovarian
[43] = test system: HT29 colon
[44] = test system: SNB-75 CNS
[45] = test system: LOX IMVI melanoma
[46] = test system: SK-MEL-2 melanoma
[47] = test system: NCI-H522 lung
[48] = test system: NCI-H226 lung
[49] = test system: IGROV1 ovarian
[50] = test system: SN12C renal
[51] = test system: A498 renal
[52] = test system: MDA-MB-231 breast
[53] = test system: A549 NSCLC
[54] = test system: HCC-2998 colon
[55] = test system: NCI-H460 lung
[56] = test system: HCT-15 colon

## C#Cc1nc(C2=C(C)/C(=N/OCc3ccccc3)CC2)cs1
[1]
  GI50: > 100 µM
  TGI: > 100 µM
[2]
  GI50: 4.76 µM
  TGI: > 100 µM
[3]
  GI50: 8.37 µM
  TGI: 30.6 µM
[4]
  GI50: 22.4 µM
  TGI: 87.6 µM
[5]
  GI50: 71.4 µM
  TGI: > 100 µM
[6]
  GI50: 40.4 µM
  TGI: > 100 µM
[7]
  GI50: 0.405 µM
  TGI: 1.49 µM
[8]
  GI50: 31 µM
  TGI: > 100 µM
[9]
  GI50: 1.63 µM
  TGI: 3.12 µM
[10]
  GI50: 46.9 µM
  TGI: > 100 µM
[11]
  GI50: 2.76 µM
  TGI: 21.7 µM
[12]
  GI50: 5.71 µM
  TGI: 24.5 µM
[13]
  GI50: 25.5 µM
  TGI: 61.6 µM
[14]
  GI50: 3.28 µM
  TGI: 15.6 µM
[15]
  GI50: 37.2 µM
  TGI: > 100 µM
[16]
  GI50: 21.6 µM
  TGI: > 100 µM
[17]
  GI50: 49.2 µM
  TGI: > 100 µM
[18]
  GI50: 5.74 µM
  TGI: 38.3 µM
[19]
  GI50: 32.6 µM
  TGI: > 100 µM
[20]
  GI50: 57.1 µM
  TGI: > 100 µM
[21]
  GI50: 36.8 µM
  TGI: > 100 µM
[22]
  GI50: 78.5 µM
  TGI: > 100 µM
[23]
  GI50: 34.7 µM
  TGI: > 100 µM
[24]
  GI50: 1.67 µM
  TGI: 3.07 µM
[25]
  GI50: 40.1 µM
  TGI: > 100 µM
[26]
  GI50: 2.91 µM
  TGI: > 100 µM
[27]
  GI50: > 100 µM
  TGI: > 100 µM
[28]
  GI50: 74.8 µM
  TGI: > 100 µM
[29]
  GI50: > 100 µM
  TGI: > 100 µM
[30]
  GI50: 47.8 µM
  TGI: > 100 µM
[31]
  GI50: 17.5 µM
  TGI: 40.9 µM
[32]
  GI50: > 100 µM
  TGI: > 100 µM
[33]
  GI50: > 100 µM
  TGI: > 100 µM
[34]
  GI50: > 100 µM
  TGI: > 100 µM
[35]
  GI50: > 100 µM
  TGI: > 100 µM
[36]
  GI50: > 100 µM
  TGI: > 100 µM
[37]
  GI50: 31.9 µM
  TGI: > 100 µM
[38]
  GI50: 11.7 µM
  TGI: > 100 µM
[39]
  GI50: 50.1 µM
  TGI: > 100 µM
[40]
  GI50: 22.6 µM
  TGI: > 100 µM
[41]
  GI50: 15.5 µM
  TGI: 33.9 µM
[42]
  GI50: 50.9 µM
  TGI: > 100 µM
[43]
  GI50: 31 µM
  TGI: > 100 µM
[44]
  GI50: > 100 µM
  TGI: > 100 µM
[45]
  GI50: 0.199 µM
  TGI: 0.444 µM
[46]
  GI50: 61.8 µM
  TGI: > 100 µM
[47]
  GI50: 5.23 µM
  TGI: 23.3 µM
[48]
  GI50: 13.5 µM
  TGI: > 100 µM
[49]
  GI50: 1.97 µM
  TGI: 4.29 µM
[50]
  GI50: 19.9 µM
  TGI: > 100 µM
[51]
  GI50: > 100 µM
  TGI: > 100 µM
[52]
  GI50: 32.2 µM
  TGI: > 100 µM
[53]
  GI50: 43.4 µM
  TGI: > 100 µM
[54]
  GI50: > 100 µM
  TGI: > 100 µM
[55]
  GI50: 44.2 µM
  TGI: > 100 µM
[56]
  GI50: 27.8 µM
  TGI: > 100 µM
